From US12285392B2, “Method for modulating metabolism” (Brightseed, Inc., priority 2018, dated 2025)

What was measured:
insulin mRNA = experiment: Insulin mRNA levels by quantitative PCR; assay type: cell-based; settings: FIG. 2
Procedure: Expression of Insulin and HNF4α. RNA was purified using a RNEASY® chromatographic separation and isolation kits (Qiagen), and converted to cDNA using the gScript™ cDNA SuperMix (Quanta Biosciences). Q-PCR was conducted with cDNA corresponding to 2 μg of RNA using an Opticon Real-Time System (MJ Research) and QPCR SuperMix (BioPioneer). See All mRNA values were normalized to 18S rRNA values and are expressed as fold changes over vehicle-treated control.

[1] = Hepatic microsome stability assay, human; assay type: in vitro ADME
Procedure: Hepatic Microsome Assay. Hepatic microsomes stability assays were performed in accordance with known methods (Peddibhotla, et al. (2013) ACS Med. Chem. Lett. 4:846-851). Briefly, 3 μL of 25 μM compound solution in acetonitrile were incubated with 123 μL of mouse, human or rat liver microsomes (Xenotech, Kansas City, Kans.). […] The microsomal concentrations used were 1.0 mg/mL. Compounds were incubated in microsomes for 0, 5, 15, 30 and 60 minutes. The reactions were stopped by the addition of ice cold ACN and the reaction mixtures were centrifuged at 10,000 g for 10 minutes before the supernatant was removed for analysis. A 10 μL portion of the resulting extract was injected on a Thermo HPLC system equipped with PAL CTC plate sampler (96-well plate), Dionex Ultimate 3000 binary pump (flow rate at 0.600 mL/min), Dionex Ultimate 3000 thermostatted column compartment (temperature at 40° C.), Thermo Endura Mass Spectrometer (ESI source), using a Thermo Scientific Accucore C18 (2.6 μM, 2.1×50 mm) column. A gradient was run starting at 95% H2O (0.1% formic acid) and 5% ACN (0.1% formic acid) during the first 0.5 min, then under gradient condition of 5-100% ACN (0.1% formic acid) from minute 0.5 to 3.5, finishing at 95% H2O (0.1% formic acid) and 5% ACN (0.1% formic acid) over 0.5 min, with another 1 min at 95:5 to re-equilibrate.

SMILES: O=C(/C=C/c1ccc(O)c(O)c1)NCCc1ccc(O)cc1 [N-trans-caffeoyltyramine]
- Insulin gene expression (insulin mRNA): upregulated
- Apparent major biotransformation pathway ([1]; human microsomes): oxidation of the left-hand aryl ring
- % Remaining ([1]; human microsomes, 1 μM): 55.3%
- % Remaining ([1]; human microsomes, 10 μM): 85.4%
- Stability in hepatic microsomes ([1]; human, rat and mouse hepatic microsomes): stable
